The values below come from ChEMBL document CHEMBL6178021, “Optimization of Tambjamines Active against Multiple Stages of Malaria Parasites” (J Med Chem, 2025).

≈ marks a conversion by molar mass, not a printed value.

The nature of series [1]: Metabolic stability in human liver microsomes assessed as half life measured up to 60 mins by LC/MS analysis. It is filed as ADME, Microsome. In general terms: Liver microsomes are vesicles of endoplasmic reticulum, rich in cytochrome P450 enzymes.
The subject of series [2] is MDR1 (human). Nature of the series: Efflux ratio, ratio of apparent permeability across apical to basolateral side over basolateral to apical side in MDCK transfected with human MDR1 cells incubated for 1 hr by LC-MS analysis. The settings on record: dog.
A short description of series [3]: Metabolic stability in mouse liver microsomes assessed as half life measured up to 60 mins by LC/MS analysis. The class given is ADME, Microsome.
Series [4] in a line: in vitro. The settings on record: human.
Description: Selectivity index, ratio of IC50 for cytotoxicity against human HepG2 cells to IC50 for antiplasmodial activity against asexual blood-stage Plasmodium falciparum D6
The nature of series [5]: in vitro. The conditions noted are these: mouse, liver microsomes.
For series [6], the system named is MDR1 (human). Nature of the series: Apparent permeability across apical to basolateral side in MDCK transfected with human MDR1 cells incubated for 1 hr by LC-MS analysis. The settings on record: dog, MDCK-MDR1.
Series [7] relates to Plasmodium falciparum. The experiment in a line: Antiplasmodial activity against asexual blood-stage Plasmodium falciparum Tm90-C2B using 2% haematocrit and 0.2% parasitemia assessed as reduction in fluorescence measured after 72 hrs by Malaria SYBR Green I-based Fluorescence (MSF) assay. The class given is functional, organism-based.
The nature of series [8]: Solubility of the compound in potassium phosphate buffer at pH 7.4 by UV-vis spectroscopy. The settings on record: buffer.
Series [9] in a line: in vitro. The conditions noted are these: human, liver microsomes.
For series [10], the system named is Plasmodium falciparum. Nature of the series: microbe, parasite or virus in culture. The settings on record: Dd2, 72 h.
Description: Antiplasmodial activity against asexual blood-stage Plasmodium falciparum Dd2 using 2% haematocrit and 0.2% parasitemia assessed as reduction in fluorescence measured after 72 hrs by Malaria SYBR Green I-based Fluorescence (MSF) assay
Another series relates to HepG2. The experiment in a line: Cytotoxicity against human HepG2 cells assessed as cell viability measured after 48 hrs by MTT assay. The settings on record: hepg2. The class given is toxicity, cell-based. (Tetrazolium assays rely on reduction of a dye to a coloured formazan, in cell work by metabolically active cells.)
In series [11] the test system is MDR1 (human). The experiment in a line: Apparent permeability across basolateral to apical side in MDCK transfected with human MDR1 cells incubated for 1 hr by LC-MS analysis. The settings on record: dog, MDCK-MDR1.
The test system of series [12] is Plasmodium yoelii. The experiment in a line: Antimalarial activity against erythrocytic Plasmodium yoelii MRA-428 infected in CF1 mouse assessed as cured mouse at 50 mg/kg, po once daily for 4 days measured on day 28 day. The settings on record: time 4.0 day. The class given is functional, organism-based.
Series [13] has as its system Plasmodium falciparum. Nature of the series: microbe, parasite or virus in culture. The conditions noted are these: D6, 72 h.
Description: Antiplasmodial activity against asexual blood-stage Plasmodium falciparum D6 using 2% haematocrit and 0.2% parasitemia assessed as reduction in fluorescence measured after 72 hrs by Malaria SYBR Green I-based Fluorescence (MSF) assay
The test system of series [14] is Plasmodium yoelii. The experiment in a line: Antimalarial activity against erythrocytic Plasmodium yoelii MRA-428 infected in CF1 mouse assessed as reduction in parasitemia at 10 mg/kg, po once daily for 4 days measured on day 5. The class given is functional. On the set-up: scale not given: the % may be the effect or the level left. The settings on record: time 4 day.

Regarding `COc1ccc(C2=C(c3ccc(OC)cc3)/C(=C/NC34C[C@H]5C[C@@H](C3)C[C@@H](C4)C5)N=C2c2ccc[nH]2)cc1`, the half-life in [1] is 52.1 min; in series [3], > 60 min. Moreover, the efflux ratio at 1 h with MDR1 (human) [2] is 0.079. In addition, the selectivity ratio in “in vitro [4]” is 496. The results for the microsomal CLint at 1 h in “in vitro [5]” and in the series “in vitro [9]” were 12.2 µL/min/mg and 26.6 µL/min/mg, respectively. Also, the Papp A→B at 1 h with MDR1 (human) [6] is 0.059 ×10⁻⁶ cm/s. Further, the IC50 with Plasmodium falciparum [7] amounted to 15.1 nM; in the series with Plasmodium falciparum [10], 15.3 nM; in the series on HepG2, 7940 nM. The compound further had a solubility in series [8] of 10.7 µM (≈ 5.41 µg/mL). The Papp B→A at 1 h in the series on MDR1 (human) [11] stood at 0.005 ×10⁻⁶ cm/s.
Consider `CCC1=C(CC)/C(=C/N[C@H]2CC[C@H](C(=O)OC)CC2)N=C1c1ccc[nH]1`, for which the half-life in series [1] is 14.4 min; in series [3], 12.6 min. The efflux ratio at 1 h with MDR1 (human) [2] was 8.4. Besides, the microsomal CLint at 1 h is 110 µL/min/mg in “in vitro [5]” and 96.4 µL/min/mg in “in vitro [9]”. The Papp A→B at 1 h in the series with MDR1 (human) [6] worked out at 0.088 ×10⁻⁶ cm/s. Besides, the results for the IC50 in the series on Plasmodium falciparum [7], in the series with Plasmodium falciparum [10] and in the series with Plasmodium falciparum [13] were 405 nM, 299 nM and 367 nM, respectively. Besides, the solubility in series [8] is 121 µM (≈ 43 µg/mL). Moreover, the Activity result with Plasmodium yoelii [12] was “Not active; None Of The Mouse Cured Out Of Four Tested”. Further, in the series with MDR1 (human) [11], the Papp B→A at 1 h came to 0.74 ×10⁻⁶ cm/s.
In the case of `CCC1=C(CC)/C(=C/NC2CCCCC2)N=C1c1ccc(Cl)[nH]1`, the half-life in [1] and in series [3] was > 60 min in each case. The efflux ratio at 1 h with MDR1 (human) [2] was determined as 0.17. For the same compound, the microsomal CLint at 1 h in the series “in vitro [5]” is 0.67 µL/min/mg; in the series “in vitro [9]”, 8.01 µL/min/mg. Also, the Papp A→B at 1 h in the series on MDR1 (human) [6] stood at 0.71 ×10⁻⁶ cm/s. The IC50 stood at 202 nM in the series with Plasmodium falciparum [7], 232 nM in the series on Plasmodium falciparum [10] and 391 nM in the series on Plasmodium falciparum [13]. In [8], this compound yielded a solubility of 22.6 µM (≈ 7.5 µg/mL). In addition, in the series on MDR1 (human) [11], the Papp B→A at 1 h was 0.12 ×10⁻⁶ cm/s.
Take `C(/NC12C[C@H]3C[C@@H](C1)C[C@@H](C2)C3)=C1/N=C(c2ccc[nH]2)C2=C1OCCO2`: the half-life came out at 11.7 min in [1] and 27.9 min in series [3]. Besides, the efflux ratio at 1 h with MDR1 (human) [2] was 6.1. Further, the selectivity ratio in “in vitro [4]” came to 444. Moreover, the microsomal CLint at 1 h in “in vitro [5]” turned out to be 49.8 µL/min/mg; in “in vitro [9]” it was 118 µL/min/mg. Moreover, in the series with MDR1 (human) [6], the Papp A→B at 1 h worked out at 0.14 ×10⁻⁶ cm/s. For the same compound, the IC50 stood at 3.91 nM with Plasmodium falciparum [7], 8.4 nM in the series with Plasmodium falciparum [10] and 3760 nM in the series on HepG2. In series [8], this compound showed a solubility of 114 µM (≈ 40.1 µg/mL). The Papp B→A at 1 h with MDR1 (human) [11] was found to be 0.85 ×10⁻⁶ cm/s. Also, the Activity in the series with Plasmodium yoelii [14] is 0%.
With `CCC1=C(CC)/C(=C/NC23C[C@H]4C[C@@H](C2)C[C@@H](C3)C4)N=C1c1ccccc1O`, in “in vitro [4]”, the selectivity ratio was 93. Moreover, the IC50 in the series on Plasmodium falciparum [7] came out at 310 nM; with Plasmodium falciparum [10], 188 nM; in the series on HepG2 it was 12200 nM; in the series with Plasmodium falciparum [13] it was 130 nM.
For `CCC1=C(CC)/C(=C/NC23C[C@H]4C[C@@H](C2)C[C@@H](C3)C4)N=C1c1ccc(-c2ccccc2)[nH]1`, the half-life is 46.9 min in [1] and 15.1 min in series [3]. In addition, in “in vitro [4]”, the selectivity ratio was 800. Further, the values for the microsomal CLint at 1 h in “in vitro [5]” and in the series “in vitro [9]” were 91.8 µL/min/mg and 29.5 µL/min/mg, respectively. In addition, the Papp A→B at 1 h in the series on MDR1 (human) [6] amounted to 2.85 ×10⁻⁶ cm/s. Further, the IC50 with Plasmodium falciparum [7] is 1.83 nM; in the series on Plasmodium falciparum [10], 1.33 nM; in the series with HepG2, 2060 nM; with Plasmodium falciparum [13], 2.58 nM. The solubility in series [8] is < 3.125 µM. The Papp B→A at 1 h with MDR1 (human) [11] came out at 0.002 ×10⁻⁶ cm/s. Further, the Activity in the series on Plasmodium yoelii [14] is reported as 0%.

One may read the half-life as the time in which the quantity being followed falls by half. In general, efflux ratio refers to a quotient of directional permeabilities that is used to spot active efflux. As usually defined, the microsomal CLint is the capacity of the preparation to metabolise the compound, expressed as a volume cleared per time. By Papp A→B is commonly meant how fast a substance crosses the layer from the apical side. One may read the IC50 as the concentration that inhibits the measured activity by half. The term solubility denotes the dissolved amount per volume that the medium holds. For orientation: Papp B→A means how fast a substance crosses the layer from the basolateral side.
